Test: Anticancer human tumor 997537-175-T-J1-PDC patient-derived colon adenocarcinoma cell line growth inhibition [POLQ]
Details: 997537-175-T-J1-PDC complex spheroid viability, combination with POLQ inhibitors; for IC50: curve of first compound; for viability, T/C: stronger effect = lower value
In short: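 Complex spheroid viability model combining PDC tumour cells with endothelial (HUVEC) and MSC stromal cells. Novobiocin, ART-558 or RP6685 were tested singly and in combination with standard and investigational anticancer drugs. Each was titrated in half-log steps from near clinical Cmax, or from 10 microM where Cmax was unknown.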

[1] = second compound 0.0316 µM, first compound 0.0316 µM
[2] = second compound 0.0316 µM, first compound 0.1 µM
[3] = second compound 0.0316 µM, first compound 0.316 µM
[4] = second compound 0.0316 µM, first compound 1 µM
[5] = second compound 0.1 µM, first compound 0.0316 µM
[6] = second compound 0.1 µM, first compound 0.1 µM
[7] = second compound 0.1 µM, first compound 0.316 µM
[8] = second compound 0.1 µM, first compound 1 µM
[9] = second compound 0.316 µM, first compound 0.0316 µM
[10] = second compound 0.316 µM, first compound 0.1 µM
[11] = second compound 0.316 µM, first compound 0.316 µM
[12] = second compound 0.316 µM, first compound 1 µM
[13] = second compound 1 µM, first compound 0.0316 µM
[14] = second compound 1 µM, first compound 0.1 µM
[15] = second compound 1 µM, first compound 0.316 µM
[16] = second compound 1 µM, first compound 1 µM
[17] = second compound 3.16 µM, first compound 0.0316 µM
[18] = second compound 3.16 µM, first compound 0.1 µM
[19] = second compound 3.16 µM, first compound 0.316 µM
[20] = second compound 3.16 µM, first compound 1 µM
[21] = second compound 10 µM, first compound 0.0316 µM
[22] = second compound 10 µM, first compound 0.1 µM
[23] = second compound 10 µM, first compound 0.316 µM
[24] = second compound 10 µM, first compound 1 µM
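Note: luminescence signal used as a surrogate for viable cells; spheroids exposed to drugs for seven days before readout.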

CCCS(=O)(=O)Nc1ccc(F)c(C(=O)c2c[nH]c3ncc(-c4ccc(Cl)cc4)cc23)c1F + COC1C(OC(N)=O)C(O)C(Oc2ccc3c(O)c(NC(=O)c4ccc(O)c(CC=C(C)C)c4)c(=O)oc3c2C)OC1(C)C
IC50 (second compound 0.0316 µM): 5.71 µM
IC50 (second compound 0.1 µM): 7.59 µM
IC50 (second compound 0.316 µM): 6.66 µM
IC50 (second compound 1 µM): 5.26 µM
IC50 (second compound 3.16 µM): 6.2 µM
IC50 (second compound 10 µM): 4.78 µM
viability, T/C [1]: 93.4%
viability, T/C [2]: 96%
viability, T/C [3]: 87.1%
viability, T/C [4]: 84.8%
viability, T/C (second compound 0.0316 µM, first compound 3.16 µM): 71.5%
viability, T/C (second compound 0.0316 µM, first compound 10 µM): 30.6%
viability, T/C [5]: 102%
viability, T/C [6]: 92.6%
viability, T/C [7]: 84.9%
viability, T/C [8]: 78%
viability, T/C (second compound 0.1 µM, first compound 3.16 µM): 77%
viability, T/C (second compound 0.1 µM, first compound 10 µM): 41.2%
viability, T/C [9]: 82.8%
viability, T/C [10]: 91.6%
viability, T/C [11]: 77.8%
viability, T/C [12]: 84.1%
viability, T/C (second compound 0.316 µM, first compound 3.16 µM): 75%
viability, T/C (second compound 0.316 µM, first compound 10 µM): 36.2%
viability, T/C [13]: 86.4%
viability, T/C [14]: 79.5%
viability, T/C [15]: 73.2%
viability, T/C [16]: 75.2%
viability, T/C (second compound 1 µM, first compound 3.16 µM): 72.7%
viability, T/C (second compound 1 µM, first compound 10 µM): 21.7%
viability, T/C [17]: 95.6%
viability, T/C [18]: 78.9%
viability, T/C [19]: 77.3%
viability, T/C [20]: 73.5%
viability, T/C (second compound 3.16 µM, first compound 3.16 µM): 78%
viability, T/C (second compound 3.16 µM, first compound 10 µM): 30.1%
viability, T/C [21]: 81.4%
viability, T/C [22]: 84%
viability, T/C [23]: 90.8%
viability, T/C [24]: 85.6%
viability, T/C (second compound 10 µM, first compound 3.16 µM): 63.9%
viability, T/C (second compound 10 µM, first compound 10 µM): 25.3%

COc1cccc(OCCCN)c1-c1cc(Nc2cnc(C#N)cn2)n[nH]1 + COC1C(OC(N)=O)C(O)C(Oc2ccc3c(O)c(NC(=O)c4ccc(O)c(CC=C(C)C)c4)c(=O)oc3c2C)OC1(C)C
IC50 (second compound 0.0316 µM): 0.0468 µM
IC50 (second compound 0.1 µM): 0.121 µM
IC50 (second compound 0.316 µM): 0.0778 µM
IC50 (second compound 1 µM): 0.0324 µM
IC50 (second compound 3.16 µM): 0.0575 µM
IC50 (second compound 10 µM): 0.0599 µM
viability, T/C (second compound 0.0316 µM, first compound 0.00316 µM): 100%
viability, T/C (second compound 0.0316 µM, first compound 0.01 µM): 95.6%
viability, T/C [1]: 59.9%
viability, T/C [2]: 28.1%
viability, T/C [3]: 33.6%
viability, T/C [4]: 30.7%
viability, T/C (second compound 0.1 µM, first compound 0.00316 µM): 106%
viability, T/C (second compound 0.1 µM, first compound 0.01 µM): 64.9%
viability, T/C [5]: 76.8%
viability, T/C [6]: 43.2%
viability, T/C [7]: 51.6%
viability, T/C [8]: 17%
viability, T/C (second compound 0.316 µM, first compound 0.00316 µM): 107%
viability, T/C (second compound 0.316 µM, first compound 0.01 µM): 95%
viability, T/C [9]: 63.8%
viability, T/C [10]: 55.3%
viability, T/C [11]: 16.9%
viability, T/C [12]: 30.2%
viability, T/C (second compound 1 µM, first compound 0.00316 µM): 105%
viability, T/C (second compound 1 µM, first compound 0.01 µM): 88%
viability, T/C [13]: 52.2%
viability, T/C [14]: 24.1%
viability, T/C [15]: 23.2%
viability, T/C [16]: 24.4%
viability, T/C (second compound 3.16 µM, first compound 0.00316 µM): 104%
viability, T/C (second compound 3.16 µM, first compound 0.01 µM): 80.7%
viability, T/C [17]: 55.8%
viability, T/C [18]: 48.7%
viability, T/C [19]: 28.6%
viability, T/C [20]: 47.1%
viability, T/C (second compound 10 µM, first compound 0.00316 µM): 95.2%
viability, T/C (second compound 10 µM, first compound 0.01 µM): 79.8%
viability, T/C [21]: 73.1%
viability, T/C [22]: 31.4%
viability, T/C [23]: 24.9%
viability, T/C [24]: 28%
